Where a SMILES comes first, the peptide text is derived from it.

The target in this assay is HLA B*1501 (Homo sapiens, UniProt P01889, A329T/A93T/A95T/C349S/D201E/D98Y/E187L/E204Q/E69M/E70A/K202T/N87E/Q94N/R155S/R180W/S121R/S35A/S48A/V306I/V36M/Y140S/Y91S). As to the kind of experiment: biochemical. In kind it is binding.

What is called IC50 is the point on the concentration scale where inhibition reaches its midpoint. A low value points to higher potency. For the compound `CSCC[C@H](NC(=O)[C@H](CO)NC(=O)[C@@H](NC(=O)[C@H](CC(C)C)NC(=O)[C@H](CCCCN)NC(=O)[C@H](CO)NC(=O)[C@@H](N)Cc1ccc(O)cc1)[C@@H](C)O)C(=O)N[C@@H](Cc1c[nH]cn1)C(=O)N[C@@H](Cc1ccccc1)C(=O)O` [3102.0944] (H-YSKLTSMHF-OH), the concentration for half-maximal inhibition (IC50) came out at 0.57 nM.
Next, `CC[C@H](C)[C@H](NC(=O)[C@H](CO)NC(=O)[C@@H](N)CCSC)C(=O)N[C@H](C(=O)N[C@@H](CO)C(=O)N[C@@H](Cc1ccccc1)C(=O)N[C@@H](Cc1ccccc1)C(=O)N1CCC[C@H]1C(=O)N[C@@H](Cc1ccccc1)C(=O)O)[C@@H](C)CC` [3102.0947] (H-MSIISFFPF-OH): 0.17 nM.
Next, `CC[C@H](C)[C@H](NC(=O)[C@@H](N)CO)C(=O)N[C@@H](CCCCN)C(=O)N[C@@H](CC(N)=O)C(=O)N[C@@H](CC(C)C)C(=O)N[C@H](C(=O)N[C@@H](CO)C(=O)N[C@@H](CCC(N)=O)C(=O)N[C@@H](Cc1ccccc1)C(=O)O)C(C)C` [3102.0951] (H-SIKNLVSQF-OH): 25 nM.
`CC(C)C[C@H](NC(=O)[C@H](Cc1ccc(O)cc1)NC(=O)[C@H](Cc1ccccc1)NC(=O)[C@@H](NC(=O)[C@H](CC(N)=O)NC(=O)[C@H](CCCCN)NC(=O)[C@H](CO)NC(=O)[C@@H](N)CC(C)C)[C@@H](C)O)C(=O)N[C@@H](Cc1ccccc1)C(=O)O` [3102.0952] (H-LSKNTFYLF-OH) returned an IC50 of 14 nM.
The compound `CC[C@H](C)[C@H](NC(=O)[C@@H](NC(=O)[C@H](Cc1ccccc1)NC(=O)[C@H](CCCCN)NC(=O)[C@H](CCC(N)=O)NC(=O)[C@@H](N)CCSC)[C@@H](C)O)C(=O)N[C@@H](CC(C)C)C(=O)N[C@@H](CCC(=O)O)C(=O)N[C@@H](Cc1ccc(O)cc1)C(=O)O` [3102.0953] (H-MQKFTILEY-OH) registered an IC50 of 10 nM.
The result for `CC[C@H](C)[C@H](NC(=O)[C@H](CCCNC(=N)N)NC(=O)[C@H](Cc1ccc(O)cc1)NC(=O)[C@H](CCC(N)=O)NC(=O)[C@@H](NC(=O)[C@@H](N)CC(C)C)C(C)C)C(=O)N[C@@H](CC(C)C)C(=O)N1CCC[C@H]1C(=O)N[C@@H](CCSC)C(=O)O` [3102.0954] (H-LVQYRILPM-OH) reads 63 nM; that for `CC[C@H](C)[C@H](NC(=O)[C@H](CCC(=O)O)NC(=O)[C@@H](N)CCC(=O)O)C(=O)N[C@@H](CO)C(=O)N[C@H](C(=O)N[C@@H](CO)C(=O)N[C@@H](CC(C)C)C(=O)N[C@@H](CO)C(=O)N[C@@H](Cc1ccccc1)C(=O)O)[C@@H](C)O` [3102.0958] (H-EEISTSLSF-OH), 2.1 nM.
The result for `CC(C)C[C@H](NC(=O)[C@H](CC(N)=O)NC(=O)[C@H](C)NC(=O)[C@H](CO)NC(=O)[C@@H](N)CC(C)C)C(=O)N[C@@H](Cc1ccccc1)C(=O)N[C@@H](CCC(=O)O)C(=O)N[C@@H](CO)C(=O)N[C@@H](CCC(N)=O)C(=O)O` [3102.0959] (H-LSANLFESQ-OH) reads 45 nM.
Next, `C[C@H](NC(=O)[C@H](CO)NC(=O)[C@@H](N)CCCNC(=N)N)C(=O)N[C@@H](CC(N)=O)C(=O)N[C@H](C(=O)N[C@@H](CO)C(=O)N[C@@H](C)C(=O)N1CCC[C@H]1C(=O)N[C@@H](Cc1ccccc1)C(=O)O)[C@@H](C)O` [3102.0964] (H-RSANTSAPF-OH): 0.68 nM; `CC[C@H](C)[C@H](NC(=O)CNC(=O)[C@@H](NC(=O)[C@H](CCCCN)NC(=O)[C@@H](NC(=O)[C@@H](N)CCC(=O)O)[C@@H](C)CC)[C@@H](C)O)C(=O)N[C@@H](CO)C(=O)N[C@@H](CO)C(=O)N[C@@H](Cc1ccccc1)C(=O)O` [3102.0969] (H-EIKTGISSF-OH): 90 nM; `CC[C@H](C)[C@H](NC(=O)[C@@H](N)CCC(=O)O)C(=O)N[C@@H](Cc1ccccc1)C(=O)N[C@@H](CCCCN)C(=O)N[C@@H](Cc1c[nH]cn1)C(=O)N[C@@H](CC(C)C)C(=O)N[C@H](C(=O)N[C@@H](Cc1ccccc1)C(=O)N[C@@H](Cc1ccccc1)C(=O)O)C(C)C` [3102.0972] (H-EIFKHLVFF-OH): 12 nM.
On to `CC[C@H](C)[C@H](NC(=O)[C@H](CC(C)C)NC(=O)[C@H](CC(=O)O)NC(=O)[C@H](CCCNC(=N)N)NC(=O)[C@H](CCSC)NC(=O)[C@@H](N)CC(N)=O)C(=O)N[C@H](C(=O)N[C@H](C(=O)N[C@@H](Cc1ccccc1)C(=O)O)[C@@H](C)O)C(C)C` [3102.0975] (H-NMRDLIVTF-OH), for which the IC50 was 8.3 nM.
For `CC(C)C[C@H](NC(=O)[C@@H](N)CC(C)C)C(=O)N[C@@H](CO)C(=O)N[C@@H](CCCNC(=N)N)C(=O)N[C@@H](Cc1ccc(O)cc1)C(=O)N[C@@H](CC(=O)O)C(=O)N[C@@H](CCC(=O)O)C(=O)N[C@@H](Cc1c[nH]cn1)C(=O)N[C@@H](Cc1ccccc1)C(=O)O` [3102.0976] (H-LLSRYDEHF-OH), the IC50 was 54 nM.
Turning to `CSCC[C@H](NC(=O)[C@H](Cc1c[nH]cn1)NC(=O)[C@H](CCC(=O)O)NC(=O)[C@H](Cc1ccccc1)NC(=O)[C@H](Cc1ccc(O)cc1)NC(=O)CNC(=O)[C@H](CCCNC(=N)N)NC(=O)[C@H](CO)NC(=O)[C@@H](N)CCSC)C(=O)O` [3102.0982] (H-MSRGYFEHM-OH), the IC50 came out at 31 nM. Compared with the last compound, the IC50 is about 1.7-fold lower.
Compound `CC[C@H](C)[C@H](NC(=O)[C@H](CCSC)NC(=O)[C@@H](N)CO)C(=O)N[C@@H](CC(N)=O)C(=O)N[C@@H](Cc1ccc(O)cc1)C(=O)N[C@@H](Cc1ccc(O)cc1)C(=O)N[C@@H](CC(N)=O)C(=O)N[C@@H](CCC(=O)O)C(=O)N[C@@H](CCSC)C(=O)O` [3102.0985] (H-SMINYYNEM-OH) returned an IC50 of 2.3 nM.
The result for `CC[C@H](C)[C@H](NC(=O)[C@@H](N)Cc1ccccc1)C(=O)N[C@@H](CC(N)=O)C(=O)N[C@@H](CO)C(=O)N[C@H](C(=O)N[C@@H](CS)C(=O)N[C@@H](Cc1ccc(O)cc1)C(=O)N[C@H](C(=O)N[C@@H](Cc1ccccc1)C(=O)O)C(C)C)[C@@H](C)O` [3102.0986] (H-FINSTCYVF-OH) reads 4.3 nM; that for `C[C@@H](O)[C@H](NC(=O)[C@H](Cc1ccccc1)NC(=O)[C@H](CO)NC(=O)[C@@H](N)CCCNC(=N)N)C(=O)N[C@@H](Cc1ccccc1)C(=O)N[C@@H](CCCCN)C(=O)N[C@@H](CCC(=O)O)C(=O)NCC(=O)N[C@@H](Cc1ccccc1)C(=O)O` [3102.0988] (H-RSFTFKEGF-OH), 35 nM; that for `CC[C@H](C)[C@H](NC(=O)[C@H](CO)NC(=O)[C@@H](N)CCSC)C(=O)N[C@@H](CC(=O)O)C(=O)N[C@@H](Cc1c[nH]cn1)C(=O)N[C@@H](CS)C(=O)N[C@@H](CO)C(=O)N[C@@H](CO)C(=O)N[C@@H](Cc1ccccc1)C(=O)O` [3102.0989] (H-MSIDHCSSF-OH), 0.95 nM.
Regarding `CC[C@H](C)[C@H](N)C(=O)N[C@H](C(=O)N[C@@H](Cc1ccc(O)cc1)C(=O)N[C@@H](CS)C(=O)N[C@@H](CC(C)C)C(=O)N[C@H](C(=O)N[C@H](C(=O)N[C@@H](Cc1c[nH]cn1)C(=O)N[C@@H](CCSC)C(=O)O)[C@@H](C)O)C(C)C)[C@@H](C)O` [3102.0993] (H-ITYCLVTHM-OH), half-maximal inhibition (IC50) required 25 nM.
Next, `CC(C)C[C@H](NC(=O)[C@H](Cc1ccc(O)cc1)NC(=O)[C@H](C)NC(=O)[C@@H](N)CCCCN)C(=O)N[C@@H](Cc1ccc(O)cc1)C(=O)N[C@H](C(=O)N[C@@H](CCC(=O)O)C(=O)N[C@@H](Cc1ccc(O)cc1)C(=O)N[C@@H](Cc1ccccc1)C(=O)O)[C@@H](C)O` [3102.0995] (H-KAYLYTEYF-OH): 7.6 nM.

The values are drawn from article PMC2248166, “Quantitative peptide binding motifs for 19 human and mouse MHC class I molecules derived using positional scanning combinatorial peptide libraries” (Immunome Research, 2008).
